{"source": "patent US20040235830A1", "about": "“Substituted cyclohexane derivatives and the use thereof in medicaments for treating cardiovascular diseases” (priority 2000, published 2004)"}
{"system": "Langendorff rat heart", "assay": "Langendorff rat heart (isolated perfused heart, coronary perfusion pressure)", "conditions": "constant-volume (10 ml/min) coronary perfusion, concentration from which perfusion pressure decreases (= relaxation of the coronary arteries), read-out: Decrease in the perfusion pressure from:", "protocol": "The heart is rapidly removed after opening the chest cavity of anesthetized rats and is introduced into a conventional Langendorff apparatus. The coronary arteries are subjected to constant-volume (10 ml/min) perfusion, and the perfusion pressure arising thereby is recorded via an appropriate pressure transducer. A decrease in the perfusion pressure in this arrangement corresponds to a relaxation of the coronary arteries. At the same time, the pressure developed by the heart during each contraction is measured via a balloon introduced into the left ventricle, and a further pressure transducer. The rate at which the isolated heart beats is found by calculation from the number of contractions per unit time.", "units": {"minimal effective concentration": "µM"}}
{"compound": "C[C@H](NC(=O)[C@H]1CCCCC1c1ccc(C(=O)N(C)C(C)(C)c2ccccc2)cc1)c1ccccc1", "note": "(stereo in doubt) [Example 177, N-Methyl-N-(1-methyl-1-phenylethyl)-4-[(1R,2S)-2-({[(1S)-1-phenylethyl]-amino}carbonyl)cyclohexyl]benzamide]", "minimal effective concentration": 0.01}
{"compound": "COCC(NC(=O)[C@H]1CCCC[C@@H]1c1ccc(CN(C(=O)Oc2ccccc2)C2CC2)cc1)c1ccccc1", "note": "(stereo partly drawn) [Example 168]", "minimal effective concentration": 0.01}
{"compound": "O=C(NC(CO)c1ccccc1)C1CCCCC1c1ccc(CN(C(=O)Oc2ccccc2)C2CC2)cc1", "note": "(stereo not drawn) [Example 40]", "minimal effective concentration": 0.01}
{"compound": "C[C@H](NC(=O)[C@H]1CCCC[C@@H]1c1ccc(COc2ccccc2)cc1)c1ccccc1", "note": "[Example 210, (1S,2S)-2-(4-[Phenoxymethyl]phenyl)-N-[(1S)-1-phenylethyl]cyclohexane-carboxamide]", "minimal effective concentration": 0.001}
{"compound": "O=C(N[C@@H](CO)c1ccccc1)[C@H]1CCCC[C@@H]1c1ccc(CN(C(=O)N2CCCCC2)c2ccccc2)cc1", "note": "[Example 1, N-[4-((1S,2S)-2-{[((1R)-2-Hydroxy-1-phenylethyl)amino]carbonyl}cyclohexyl)-benzyl]-N-phenyl-1-piperidinecarboxamide]", "minimal effective concentration": 1}
{"compound": "C[C@H](NC(=O)[C@H]1CCCC[C@@H]1c1ccc(CN(C(=O)N2CCCC2)c2ccccc2)cc1)c1ccccc1", "note": "[Example 7]", "minimal effective concentration": 0.1}
{"compound": "COCCN(Cc1ccc(C2CCCCC2C(=O)NC(CO)c2ccccc2)cc1)C(=O)Nc1ccccc1", "note": "(stereo not drawn) [Example 80]", "minimal effective concentration": 1}
{"compound": "C[C@H](NC(=O)[C@H]1CCCC[C@@H]1c1ccc(CN(C)C(C)(C)c2ccccc2)cc1)c1ccccc1", "note": "[Example 123, (1S,2S)-2-(4-{[Dimethylbenzyl(methyl)amino]methyl}phenyl)-N-[(1S)-1-phenylethyl]cyclohexanecarboxamide]", "minimal effective concentration": 0.01}
{"compound": "CN(Cc1ccc([C@H]2CCCC[C@@H]2C(=O)N[C@@H](CO)c2ccccc2)cc1)c1ccccc1", "note": "[Example 21]", "minimal effective concentration": 0.001}
